Assay results as given in patent US20250152574A1 (BIOGEN MA INC., priority 2022, published 2025).

Molecular target: T1, EBP (Homo sapiens, UniProt Q15125)
T1 construct: HEK293T cells were utilized as the source of EBP enzyme; endogenous in cells; host or cells: HEK293T
Experiment: EBP Functional Assay (EBP immunoaffinity LC-MS assay)
Assay type: biochemical
Settings: HEK293T cells as source of EBP enzyme; substrate zymosterol-d5, 37° C. for 4 h; percent conversion to dehydrolathosterol-d5 by LC-APCI MRM MS
Method: The EBP immunoaffinity (IA) LC-MS assay measures the potency of small molecule inhibitors of EBP by quantifying their concentration-dependent changes in the enzyme's substrate and product using liquid chromatography atmospheric pressure chemical ionization multiple reaction monitoring mass spectrometry (LC-APCI MRM MS). HEK293T cells were utilized as the source of EBP enzyme. The enzyme was incubated with the small molecule inhibitors at variable concentrations for 30 min. Deuterated form of EBP substrate, zymosterol-d5 (Avanti Polar Lipids, Cat #700068P-1 mg), was then added and the plate was incubated at 37° C. for 4 h. Finally, the sterol isomers were extracted and injected to LC-APCI MRM MS. MRM transition used for the quantification for both zymosterol and […] (substrate and product of EBP enzymatic reaction, respectively) is 372.3-203.2, CE 30 and DP 80 in positive ion mode. Percent conversion of the zymosterol-d5 to dehydrolathosterol-d5 was used to derive IC50 curves. Tasin-1 (1′-[(4-Methoxyphenyl)sulfonyl]-4-methyl-1,4′-bipiperidine, CAS 792927-06-1) was used as the reference small molecule inhibitor.
Percent conversion versus the compound concentration data were fit to the following 4-parameter logistic model to generate IC50 curves: […]

T1 sequence (Q15125 whole entry): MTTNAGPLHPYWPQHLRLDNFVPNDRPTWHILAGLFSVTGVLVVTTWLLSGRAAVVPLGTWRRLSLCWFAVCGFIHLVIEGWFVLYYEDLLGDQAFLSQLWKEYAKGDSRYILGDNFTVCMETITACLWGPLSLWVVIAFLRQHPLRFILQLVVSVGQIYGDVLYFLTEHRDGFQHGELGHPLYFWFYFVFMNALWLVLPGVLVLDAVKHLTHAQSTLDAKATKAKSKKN

**Q.** Which IC50 does the source give for `N#Cc1ccc(F)c(S(=O)(=O)N2CCC3(CC2)CC(N2CC4(COC4)C2)CO3)c1` (stereo not drawn) [Example 46, 3-((3-(2-Oxa-6-azaspiro[3.3]heptan-6-yl)-1-oxa-8-azaspiro[4.5]decan-8-yl)sulfonyl)-4-fluorobenzonitrile] here?
**A.** Its IC50 is 250 to 1500 nM.

**Q.** `Cc1cc(C(F)(F)F)ncc1S(=O)(=O)N1CCC2(CC1)CC(N1CCOCC1)CO2` (stereo not drawn) [Example 4] was tested. Which IC50 did it give?
**A.** Its IC50 is 250 to 1500 nM.

**Q.** How did the IC50 turn out when `O=S(=O)(c1cc2cccnc2cc1F)N1CCC2(CCC(N3CCOCC3)C2)CC1` (stereo not drawn) [Example 31, 4-(8-((7-fluoroquinolin-6-yl)sulfonyl)-8-azaspiro[4.5]decan-2-yl)morpholine] was run?
**A.** Its IC50 is 100 to 250 nM.

**Q.** Which IC50 does the source give for `N#Cc1ccc(F)c(S(=O)(=O)N2CCC3(CC2)CC(NC2CCC(F)(F)CC2)CO3)c1` (stereo not drawn) [Example 48, 3-((3-((4,4-Difluorocyclohexyl)amino)-1-oxa-8-azaspiro[4.5]decan-8-yl)sulfonyl)-4-fluorobenzonitrile] here?
**A.** The IC50 was 100 to 250 nM.

**Q.** Which IC50 does the source give for `COc1ccc(S(=O)(=O)N2CCC3(CC2)CC(N2CCOCC2)CO3)c(C)n1` (stereo not drawn) [Example 20, 8-((6-Methoxy-2-methylpyridin-3-yl)sulfonyl)-3-morpholino-1-oxa-8-azaspiro[4.5]decane] here?
**A.** The IC50 was 250 to 1500 nM.

**Q.** How did the IC50 turn out when `Cc1ccc(S(=O)(=O)N2CCC3(CC2)CC(N2CC(C)(O)C2)CO3)c(Cl)c1` (stereo not drawn) [Example 50, 1-(8-((2-Chloro-4-methylphenyl)sulfonyl)-1-oxa-8-azaspiro[4.5]decan-3-yl)-3-methylazetidin-3-ol] was run?
**A.** Its IC50 is 100 to 250 nM.

**Q.** For `O=S(=O)(c1ccc(OC(F)F)cc1)N1CCC2(CC1)CC(N1CCCCC1)CO2` (stereo not drawn) [Example 14, 8-((4-(Difluoromethoxy)phenyl)sulfonyl)-3-(piperidin-1-yl)-1-oxa-8-azaspiro[4.5]decane], which IC50 is on record?
**A.** The IC50 was 250 to 1500 nM.

**Q.** How did the IC50 turn out when `CCn1ncc(S(=O)(=O)N2CCC3(CCC(N4CC5(COC5)C4)C3)CC2)n1` (stereo not drawn) [Example 111] was run?
**A.** The IC50 was 250 to 1500 nM.

**Q.** Which IC50 does the source give for `Cn1nc2c(c1S(=O)(=O)N1CCC3(CCC(N4CCOCC4)C3)CC1)COCC2` (stereo not drawn) [Example 24, 2-Methyl-3-((2-morpholino-8-azaspiro[4.5]decan-8-yl)sulfonyl)-2,4,6,7-tetrahydropyrano[4,3-c]pyrazole] here?
**A.** Its IC50 is 250 to 1500 nM.

**Q.** `COCCNC1COC2(CCN(S(=O)(=O)c3cc(C)cnc3OC)CC2)C1` (stereo not drawn) [Example 65, 8-((2-Methoxy-5-methylpyridin-3-yl)sulfonyl)-N-(2-methoxyethyl)-1-oxa-8-azaspiro[4.5]decan-3-amine] was tested. Which IC50 did it give?
**A.** The IC50 was 100 to 250 nM.

**Q.** How did the IC50 turn out when `O=S(=O)(c1cc(F)ccc1F)N1CCC2(CC1)CC(N1CCOCC1)CO2` (stereo not drawn) [Example 19, 8-((2,5-Difluorophenyl)sulfonyl)-3-morpholino-1-oxa-8-azaspiro[4.5]decane] was run?
**A.** Its IC50 is 250 to 1500 nM.

**Q.** With `[2H]C([2H])([2H])N(CCOC)C1COC2(CCN(S(=O)(=O)c3cc(C)cnc3OC)CC2)C1` (stereo not drawn) [Example 66, 8-((2-Methoxy-5-methylpyridin-3-yl)sulfonyl)-N-(2-methoxyethyl)-N-(methyl-d3)-1-oxa-8-azaspiro[4.5]decan-3-amine] as the compound, how does the IC50 read?
**A.** Its IC50 is 250 to 1500 nM.

**Q.** How did the IC50 turn out when `N#Cc1cc(F)cc(S(=O)(=O)N2CCC3(CCC(N4C[C@H]5C[C@@H]4CO5)C3)CC2)c1` (stereo partly drawn) [Example 97, 3-((2-((1R,4R)-2-oxa-5-azabicyclo[2.2.1]heptan-5-yl)-8-azaspiro[4.5]decan-8-yl)sulfonyl)-5-fluorobenzonitrile] was run?
**A.** Its IC50 is 100 to 250 nM.

**Q.** For `COc1ccc(S(=O)(=O)N2CCC3(CCC(N4CC(O)C4)C3)CC2)c(C)n1` (stereo not drawn) [Example 99, 1-(8-((6-methoxy-2-methylpyridin-3-yl)sulfonyl)-8-azaspiro[4.5]decan-2-yl)azetidin-3-ol], which IC50 is on record?
**A.** The IC50 was < 100 nM.

**Q.** For `O=S(=O)(c1ccc2cccnc2c1)N1CCC2(CCC(N3CC4(COC4)C3)C2)CC1` (stereo not drawn) [Example 144, 6-(8-(quinolin-7-ylsulfonyl)-8-azaspiro[4.5]decan-2-yl)-2-oxa-6-azaspiro[3.3]heptane], which IC50 is on record?
**A.** Its IC50 is 100 to 250 nM.

**Q.** Which IC50 does the source give for `Cc1cc(S(=O)(=O)N2CCC3(CC2)CC(N2CCC4(CCOC4)C2)CO3)n(C)n1` (stereo not drawn) [Example 29, 8-((1,3-Dimethyl-1H-pyrazol-5-yl)sulfonyl)-3-(2-oxa-7-azaspiro[4.4]nonan-7-yl)-1-oxa-8-azaspiro[4.5]decane] here?
**A.** The IC50 was 250 to 1500 nM.

**Q.** How did the IC50 turn out when `COCCNC1COC2(CCN(S(=O)(=O)c3cc(C4CC4)nn3C)CC2)C1` (stereo not drawn) [Example 59, 8-((3-Cyclopropyl-1-methyl-1H-pyrazol-5-yl)sulfonyl)-N-(2-methoxyethyl)-1-oxa-8-azaspiro[4.5]decan-3-amine] was run?
**A.** The IC50 was 250 to 1500 nM.

**Q.** For `Cc1cc(S(=O)(=O)N2CCC3(CCC(N4C[C@@H]5C[C@H]4CO5)C3)CC2)n(C)n1` (stereo partly drawn) [Example 87, (1S,4S)-5-(8-((1,3-dimethyl-1H-pyrazol-5-yl)sulfonyl)-8-azaspiro[4.5]decan-2-yl)-2-oxa-5-azabicyclo[2.2.1]heptane], which IC50 is on record?
**A.** The IC50 was 250 to 1500 nM.

**Q.** With `N#Cc1ccc(S(=O)(=O)N2CCC3(CCC(N4CC5(COC5)C4)C3)CC2)c(Cl)c1` (stereo not drawn) [Example 126, 4-((2-(2-oxa-6-azaspiro[3.3]heptan-6-yl)-8-azaspiro[4.5]decan-8-yl)sulfonyl)-3-chlorobenzonitrile] as the compound, how does the IC50 read?
**A.** The IC50 was 100 to 250 nM.

**Q.** `O=S(=O)(c1ccc(OC(F)F)cc1)N1CCC2(CCC(N3C[C@H]4C[C@@H]3CO4)C2)CC1` (stereo partly drawn) [Example 27, (1R,4R)-5-(8-((4-(Difluoromethoxy)phenyl)sulfonyl)-8-azaspiro[4.5]decan-2-yl)-2-oxa-5-azabicyclo[2.2.1]heptane] was tested. Which IC50 did it give?
**A.** The IC50 was < 100 nM.

**Q.** For `Cc1cc(S(=O)(=O)N2CCC3(CC[C@H](N4CC5(COC5)C4)C3)CC2)n(C)n1` (single isomer, unassigned) [Example 68b], which IC50 is on record?
**A.** Its IC50 is 100 to 250 nM.

**Q.** `N#Cc1cc(F)cc(S(=O)(=O)N2CCC3(CC[C@H](N4CC5(COC5)C4)C3)CC2)c1` (single isomer, unassigned) [Example 85b] was tested. Which IC50 did it give?
**A.** Its IC50 is < 100 nM.

**Q.** Which IC50 does the source give for `N#Cc1cc(S(=O)(=O)N2CCC3(CCC(N4CC5(COC5)C4)C3)CC2)ccc1F` (stereo not drawn) [Example 127, 5-((2-(2-oxa-6-azaspiro[3.3]heptan-6-yl)-8-azaspiro[4.5]decan-8-yl)sulfonyl)-2-fluorobenzonitrile] here?
**A.** The IC50 was 250 to 1500 nM.

**Q.** `O=S(=O)(c1ccc(OC(F)F)cc1)N1CCC2(CCC(N3CCOCC3)C2)CC1` (stereo not drawn) [Example 23, 4-(8-((4-(Difluoromethoxy)phenyl)sulfonyl)-8-azaspiro[4.5]decan-2-yl)morpholine] was tested. Which IC50 did it give?
**A.** Its IC50 is 100 to 250 nM.

**Q.** For `Cc1ccc(S(=O)(=O)N2CCC3(CC2)CC(N2CC(O)C2)CO3)c(Cl)c1` (stereo not drawn) [Example 52, 1-(8-((2-Chloro-4-methylphenyl)sulfonyl)-1-oxa-8-azaspiro[4.5]decan-3-yl)azetidin-3-ol], which IC50 is on record?
**A.** Its IC50 is 100 to 250 nM.

**Q.** Which IC50 does the source give for `O=S(=O)(c1cc(F)cc(F)c1)N1CCC2(CC1)C[C@@H](N1CC3(COC3)C1)CO2` (single isomer, unassigned) [Example 119b] here?
**A.** The IC50 was 100 to 250 nM.

**Q.** Which IC50 does the source give for `Cc1ccc(S(=O)(=O)N2CCC3(CC2)CC(NC2CCOCC2)CO3)c(Cl)c1` (stereo not drawn) [Example 51, 8-((2-Chloro-4-methylphenyl)sulfonyl)-N-(tetrahydro-2H-pyran-4-yl)-1-oxa-8-azaspiro[4.5]decan-3-amine] here?
**A.** The IC50 was < 100 nM.

**Q.** How did the IC50 turn out when `O=S(=O)(c1coc(C(F)(F)F)c1)N1CCC2(CCC(N3CC4(COC4)C3)C2)CC1` (stereo not drawn) [Example 101, 6-(8-((5-(trifluoromethyl)furan-3-yl)sulfonyl)-8-azaspiro[4.5]decan-2-yl)-2-oxa-6-azaspiro[3.3]heptane] was run?
**A.** Its IC50 is < 100 nM.

**Q.** For `COc1ncc(C)cc1S(=O)(=O)N1CCC2(CCC(N3CC4(CCOC4)C3)C2)CC1` (stereo not drawn) [Example 43], which IC50 is on record?
**A.** Its IC50 is < 100 nM.

**Q.** With `COc1cc(S(=O)(=O)N2CCC3(CCC(N4CC5(COC5)C4)C3)CC2)ccn1` (stereo not drawn) [Example 112] as the compound, how does the IC50 read?
**A.** Its IC50 is < 100 nM.
